In the test the test system is NLK. Put plainly: NLK expression in differentiating human progenitors (qRT-PCR, Western blot). The format is cell-based. Also on record: reduction of NLK protein expression / NLK expression, % of control: concentration or dose not given beside the values. The settings on record: for NLK expression, % of control: miRNAs or drugs, single and combined; for reduction of NLK protein expression: metformin. Here is the method:
FIG. 10. Metformin improves erythropoiesis through suppression of NLK expression. (Panel A) Control (shLuc—grey columns) or RPS19-insufficient (shRPS19-—black columns) progenitors were differentiated in erythroid media alone, vehicle or vehicle containing 50 mM metformin or 5 uM SD208 for 5 days. 5000 cells per treatment were lysed and immunopurified NLK was subjected to in vitro kinase assay to determine phosphorylation potential against 3 recognized NLK substrates; NLK itself (upper), c-Myb (middle) or raptor (bottom). (Panel B) Simultaneously, qRT-PCR was performed to examine NLK (upper) and RPS19 (lower) mRNA expression. (Panel C) Active NLK was purified from activated Kp53A1 cells and subjected to in vitro kinase assay in the presence of 0, 50 nM, 50 μM, or 50 mM metformin or SD208. The phosphorylation of NLK (upper), c-Myb (middle) and raptor (lower) was determined after 30 mins. (Panel D) CD34+ progenitors were transduced with a combination of either shRNA against luciferase (shLuc—grey columns) or RPS19 (shRPS19—black columns) and siRNA against a non-targeting sequence (NT) or NLK (siNLK). After 14 days differentiation in the presence or absence of metformin, cells were counted and the percentage of cells with surface expression of CD235 and CD11b were determined by flow cytometry, to yield the number of CD235+ erythroid (upper) and CD11b+ myeloid (lower) cells. The total number of cells is expressed as a percentage of the number of each cell type in the control (untreated/shLuc/NT). […] Statistics: two-tailed Student's t test, significant *P<0.05
RNA was extracted by using total RNA mini kit (Bio-Rad). RNA was transcribed into cDNA by using the iScript cDNA Synthesis Kit (Bio-Rad). The quantitative RT-PCR (qRT-PCR) reaction was run with iQ SYBR Green MasterMix (Bio-Rad) using the CFX384 Touch Real-Time PCR Detection System (Bio-Rad). 7SL small cytoplasmic RNA14 was used as an internal control. miRNA was quantified using TaqMan® Small RNA Assays (Applied Biosystems) as per manufacturer's directions and normalized to snoRNA. Fold change of mRNA and miRNA was calculated by using the comparative Ct method.
Antibodies against RPS19 (#AB40833; Abcam; 1:200 dilution), NLK (#AB97642; Abcam; 1:1000 dilution) c-Myb (#12319; Cell Signaling; 1;1000 dilution), raptor (#AB26264; Abcam 1;1000 dilution), phosphor-Serine (#525280; Calbiochem; 1:1000 dilution), S6K (#9202; Cell Signaling; 1:500 dilution), and 4E-BP1 (#9452; Cell Signaling; 1:500 dilution), and GAPDH (#MAB374; Millipore; 1:10000) were used according to manufacturer's instructions. The target proteins were analyzed by using SuperSignal® West Pico Chemiluminescent Substrate for horseradish peroxidase (Thermo Scientific). Densitometry was performed using Image J software (http://rsb.info.nih.gov/ij/). When indicated, proteins were co-immunoprecipitated prior to immunoblotting. Cell lysates were normalized for protein before preclearing with Protein A/G Agarose (Upstate) for 30 min, before incubating with indicated antibody overnight. Immune complexes were precipitated with Protein A/G Agarose and separated by SDS-PAGE, before being subjected to immunoblotting.
NLK kinase activity was performed as published (5). For Western blotting, antibodies against NLK (#AB97642; Abcam; 1:1000 dilution) and GAPDH (#MAB374; Millipore; 1:10000) were used according to manufacturer's instructions.
MessengerRNA was quantified as described (5). MicroRNA was quantified using TaqMan® Small RNA Assays (Applied Biosystems) as per manufacturer's directions and normalized to snoRNA.
Background: Real-time PCR tracks product formation cycle by cycle.

Structures are written as SMILES.

For the compound `Fc1ccc(Cl)cc1-c1nc(Nc2ccncc2)c2nccnc2n1` [SD208], the “influence on NLK expression” value (5 uM SD208) is “did not significantly influence”.

`CC(C)=CCC[C@](C)(O[C@@H]1O[C@H](CO[C@@H]2O[C@H](CO)[C@@H](O)[C@H](O)[C@H]2O)[C@@H](O)[C@H](O)[C@H]1O)[C@H]1CC[C@]2(C)[C@@H]1[C@H](O)C[C@@H]1[C@@]3(C)CC[C@H](O[C@@H]4O[C@H](CO)[C@@H](O)[C@H](O)[C@H]4O[C@@H]4O[C@H](CO)[C@@H](O)[C@H](O)[C@H]4O)C(C)(C)[C@@H]3CC[C@]12C` [ginsenoside Rb1]: the “NLK expression, % of control” value is reported as 65.4%. In addition, the “reduction of NLK mRNA expression” value (RPS19-insufficiency, 50 mM) came to 43.2%. Also, the “reduction of NLK mRNA expression” value (control, 50 mM) was 43.8%. Under “differentiating HSPCs, 50 mM”, the “reduction of NLK protein” value worked out at 46.4%.

Turning to `CN(C)C(=N)N=C(N)N` [metformin], the “NLK expression, % of control” value is on record as 40.6%. The NLK expression result (RPS19-insufficient and control cells) is given as “similarly suppressed”. Also, the “reduction of NLK protein expression” value (RPS19-insufficient cultures) was 65.4%. Also, under “control cultures”, the “reduction of NLK protein expression” value is 62.6%.

Values taken from patent publication US12403132B2, “Methods of treating bone marrow failure syndromes and compositions for use in the same” (The Board of Trustees of the Leland Stanford Junior …, priority 2020, dated 2025).
